For 14 compounds, IC50 results are on record in patent US9303016B2, “Derivatives of aza adamantane and uses thereof” (CONNEXIOS LIFE SCIENCES PVT. LTD., priority 2011, dated 2016).

As usually defined, the IC50 is the concentration at which inhibition is half-maximal.

The target of this experiment is T1, human full length HSD11β1 (Homo sapiens, UniProt P28845).
T1 construct: transient expression of human full length HSD11β1 expression vector; host or cells: CHO cells, transient transfection
T1 sequence (P28845 whole entry): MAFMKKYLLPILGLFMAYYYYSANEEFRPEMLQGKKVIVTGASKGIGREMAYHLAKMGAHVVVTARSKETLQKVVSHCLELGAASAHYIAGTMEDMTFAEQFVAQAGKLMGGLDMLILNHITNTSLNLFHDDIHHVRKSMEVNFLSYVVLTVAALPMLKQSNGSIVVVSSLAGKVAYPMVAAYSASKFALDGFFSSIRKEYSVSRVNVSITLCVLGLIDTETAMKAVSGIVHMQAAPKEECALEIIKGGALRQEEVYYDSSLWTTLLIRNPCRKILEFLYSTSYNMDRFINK
As to the kind of experiment: In Vitro HSD11β1 Inhibition Assay. The experiment is classed as cell-based. The following applies: CHO cells transiently expressing human HSD11β1; 200 nM cortisone+500 uM NADPH overnight; cortisone to cortisol by LC/MS-MS; read-out: 11βHSD1 (IC50). The method, then:
In Vitro HSD11β1 Inhibition Assay:
CHO cells were maintained in Dulbecco's modified Eagle's medium/nutrient mixture F-12 containing 5% fetal bovine serum (v/v) and 2 mM glutamine. Cells were cultured at 37° C. with 5% CO2. For transient expression of human full length HSD11β1 expression vector (OriGene Technologies), cells were seeded at a density of 2×10^5 cells/well in a 6-well plate. Transfection was done using Turbofectin8 reagent (OriGene Technologies), according to the protocol provided with the reagent. After 24 hours post-transfection, cells were trypsinized and pooled together before they were re-seeding to 96-well plate at a density of 40000 cells/well. 24 hours after re-seeding, cells were incubated with 200 nM cortisone+500 uM NADPH (or along with small molecule inhibitors) overnight. The enzymatic activity or inhibition of enzyme activity was measured by estimating the conversion of cortisone to cortisol by LC/MS-MS method. The IC50 in nM was calculated from a 8 point log scale of concentration versus inhibition.
With `CC(CC(=O)N1C2CC3CC1CC(O)(C3)C2)c1c[nH]c2cccc(Oc3ccc(Cl)cc3)c12` (centres unmarked) [Example 44, 3-[4-(4-chlorophenoxy)-1H-indol-3-yl]-1-(5-hydroxy-2-azatricyclo[3.3.1.1^3,7]dec-2-yl)butan-1-one], the IC50 was in the range of 200 to 250 nM.

`CC(C)C(CC(=O)N1C2CC3CC1CC(C#N)(C3)C2)c1c[nH]c2ncccc12` (centres unmarked) [Compound 92, 2-[4-methyl-3-(1H-pyrrolo[2,3-b]pyridin-3-yl)pentanoyl]-2-azatricyclo[3.3.1.1^3,7]decane-5-carbonitrile]: the IC50 was > 250 nM.

For the compound `CC(CC(=O)N1C2CC3CC1CC(O)(C3)C2)c1c[nH]c2cccc(C3CC3)c12` (centres unmarked) [Example 41], the 50% inhibitory concentration (IC50) is < 100 nM.

Consider `Cc1cccc2c1c(C(C)CC(=O)N1C3CC4CC1CC(O)(C4)C3)cn2C1CC1` (centres unmarked) [Compound 205, 3-(1-cyclopropyl-4-methyl-1H-indol-3-yl)-1-(5-hydroxy-2-azatricyclo[3.3.1.1^3,7]dec-2-yl)butan-1-one], for which the IC50 was > 250 nM.

Regarding `CC(CC(=O)N1C2CC3CC1CC(O)(C3)C2)c1c[nH]c2cccc(Cl)c12` (single isomer, unassigned) [Example 37, 3-(4-chloro-1H-indol-3-yl)-1-(5-hydroxy-2-azatricyclo[3.3.1.1^3,7]dec-2-yl)butan-1-one], the IC50 was < 100 nM.

In the case of `CC(CC(=O)N1C2CC3CC1CC(O)(C3)C2)c1cn(CCO)c2cccc(C3CC3)c12` (centres unmarked) [Compound 80, 3-[4-cyclopropyl-1-(2-hydroxyethyl)-1H-indol-3-yl]-1-(5-hydroxy-2-azatricyclo[3.3.1.1^3,7]dec-2-yl)butan-1-one], the IC50 was > 250 nM.

As for `O=C(CC(c1ccccc1)c1c[nH]c2cccc(F)c12)N1C2CC3CC1CC(C(=O)O)(C3)C2` (centres unmarked) [Compound 111, 2-[3-(4-fluoro-1H-indol-3-yl)-3-phenylpropanoyl]-2-azatricyclo[3.3.1.1^3,7]decane-5-carboxylic acid], the half-inhibitory concentration (IC50) is > 250 nM.

For `CC(CC(=O)N1C2CC3CC1CC(C(=O)Nc1ccc(F)cc1)(C3)C2)c1c[nH]c2cccc(Cl)c12` (centres unmarked) [Example 45, 2-[3-(4-chloro-1H-indol-3-yl)butanoyl]-N-(4-fluorophenyl)-2-azatricyclo[3.3.1.1^3,7]decane-5-carboxamide], the IC50 is > 250 nM.

Take `COc1ccc2[nH]cc(C(C)CC(=O)N3C4CC5CC3CC(O)(C5)C4)c2c1C` (centres unmarked) [Compound 165, 1-(5-hydroxy-2-azatricyclo[3.3.1.1^3,7]dec-2-yl)-3-(5-methoxy-4-methyl-1H-indol-3-yl)butan-1-one]: the IC50 is > 250 nM.

Turning to `CC(CC(=O)N1C2CC3CC1CC(O)(C3)C2)c1c[nH]c2nccc(Cl)c12` (centres unmarked) [Compound 87, 3-(4-chloro-1H-pyrrolo[2,3-b]pyridin-3-yl)-1-(5-hydroxy-2-azatricyclo[3.3.1.1^3,7]dec-2-yl)butan-1-one], the IC50 fell in the range of 150 to 200 nM.

As for `CC(CC(=O)N1C2CC3CC1CC(O)(C3)C2)c1c[nH]c2ncc(Cl)c(Cl)c12` (centres unmarked) [Compound 197, 3-(4,5-dichloro-1H-pyrrolo[2,3-b]pyridin-3-yl)-1-(5-hydroxy-2-azatricyclo[3.3.1.1^3,7]dec-2-yl)butan-1-one], the IC50 is < 100 nM.

As to `Cc1[nH]c2cccc(Cl)c2c1C(C)CC(=O)N1C2CC3CC1CC(O)(C3)C2` (centres unmarked) [Example 60, 3-(4-chloro-2-methyl-1H-indol-3-yl)-1-(5-hydroxy-2-azatricyclo[3.3.1.1^3,7]dec-2-yl)butan-1-one], the half-inhibitory concentration (IC50) is > 250 nM.

On to `CC(C)Oc1cccc2[nH]cc(C(C)CC(=O)N3C4CC5CC(C4)CC3C5)c12` (centres unmarked) [Compound 181, 1-(2-azatricyclo[3.3.1.1^3,7]dec-2-yl)-3-[4-(propan-2-yloxy)-1H-indol-3-yl]butan-1-one], for which the IC50 was > 250 nM.

Consider `CC(C)Oc1cccc2[nH]cc(C(C)CC(=O)N3C4CC5CC3CC(F)(C5)C4)c12` (single isomer, unassigned) [Compound 185, 1-(5-fluoro-2-azatricyclo[3.3.1.1^3,7]dec-2-yl)-3-[4-(propan-2-yloxy)-1H-indol-3-yl]butan-1-one], for which the IC50 is > 250 nM.
